Assay results as given in PubChem BioAssay (NCI).
“And” between values parts separate entries of the source, which are not always exact repeats. Equal values may be shown once.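 How tested: cells in 96-well plates exposed to compound for 48 hours at five concentrations. GI50 marks 50% less growth. TGI marks complete inhibition of growth.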

Assays:
Assay in all cases: NCI anticancer screen, dose series, 48 h
SK-MEL-2 melanoma = system: SK-MEL-2 melanoma
SW-620 colon = system: SW-620 colon
MOLT-4 leukemia = system: MOLT-4 leukemia
HOP-92 NSCLC = system: HOP-92 NSCLC
HCC-2998 colon = system: HCC-2998 colon
NCI-H23 lung = system: NCI-H23 lung
TK-10 renal = system: TK-10 renal
A498 renal = system: A498 renal
DMS 273 small cell lung = system: DMS 273 small cell lung
HOP-18 NSCLC = system: HOP-18 NSCLC

Compound | GI50 (SK-MEL-2 melanoma) [µM] | TGI (SK-MEL-2 melanoma) [µM] | GI50 (SW-620 colon) [µM] | TGI (SW-620 colon) [µM] | GI50 (MOLT-4 leukemia) [µM] | TGI (MOLT-4 leukemia) | GI50 (HOP-92 NSCLC) | TGI (HOP-92 NSCLC) | GI50 (HCC-2998 colon) | TGI (HCC-2998 colon) [µM] | GI50 (NCI-H23 lung) [µM] | TGI (NCI-H23 lung) [µM] | GI50 (TK-10 renal) | TGI (TK-10 renal) | GI50 (A498 renal) [µM] | TGI (A498 renal) | TGI (DMS 273 small cell lung) | TGI (HOP-18 NSCLC) [µM] | GI50 (DMS 273 small cell lung) [µM] | GI50 (HOP-18 NSCLC) [µM]
CCN(CC)c1ccc(C(=O)c2ccc(N(CC)CC)cc2)cc1 | 0.493 | 14.9 | 0.326 | 17 | 0.718 | 19.8 µM | 0.776 µM | 10.9 µM | 1.26 µM | 35.4 | 0.74 | > 100 | 1.33 µM | 68.9 µM | 0.335 | 4.14 µM | – | – | – | –
C=C(c1ccccc1)[C@@]1(O)CC[C@@H]1N(CC#N)Cc1ccccc1 | – | 53.1 | – | 34.8 | – | 69.2 µM | – | 34.9 µM | – | 44.3 | – | 68 | – | 35.5 µM | – | > 100 µM | 39.7 µM | 28 | – | –
O=C1C(=O)c2cccnc2-c2ncccc21 | 0.71 | 2.35 | 0.072 | 1.12 | 0.171 | 0.509 µM | 0.175 µM | 0.618 µM | 1.32 µM | 2.92 | 0.319 | 1.3 | 1.24 µM | 2.6 µM | 0.199 | 2.21 µM | – | – | – | –
CCCCCCCc1cc2c3c(nc4ccccc42)C(=O)c2cccnc2-c3n1 | 12.3 | 27.2 | 1.5 | 6.34 | 1.54 | > 20.2 µM | 6.34 µM | 17 µM | 2.93 µM | 7.56 | 10.8 | 25.6 | 2.4 µM | 4.41 µM | 6.46 | 17.5 µM | – | – | – | –
N#CC1CC2(CCN1C(=O)c1ccccc1)OCCO2 (centres undefined) | – | > 100 | – | > 100 | – | > 100 µM | – | > 100 µM | – | > 100 | – | > 100 | – | > 100 µM | – | > 100 µM | > 100 µM | > 100 | – | –
Clc1ccc(C(n2cc(Br)cn2)n2cc(Br)cn2)cc1 | – | 33.2 | – | 34.6 | – | 47.9 µM | – | 30.6 µM | – | 31.8 | – | 42.6 | – | 32 µM | – | 33.1 µM | 36.8 µM | 34.4 | – | –
Cc1cnc(C(=O)Nc2nc3ccc(S(=O)(=O)Nc4ccc(C5(C(F)(F)F)CC5)cc4)cc3[nH]2)cn1 | 0.784 | 20.1 | 0.369 | 5.92 | 0.501 | 14.5 µM | 0.387 µM | 6.46 µM | 1.13 µM | 10.4 | 0.416 | 5.98 | 1.48 µM | 12 µM | 0.228 | 0.882 µM | – | – | – | –
CC(C)CC(NC(=O)OC(C)(C)C)C(=O)Nc1ccc(Nc2nc(F)nc(-c3c4ccccc4cn3C)n2)cc1 (centres undefined) | – | > 100 | – | > 54.4 | – | > 100 µM | – | > 100 µM | – | 40.2 | – | > 100 | – | > 100 µM | – | > 100 µM | > 100 µM | > 100 | – | –
CC(C)OP(=O)(NC(=S)c1ccccc1)OC(C)C | – | > 100 | – | > 100 | – | > 100 µM | – | > 100 µM | – | > 100 | – | > 100 | – | > 100 µM | – | > 100 µM | > 100 µM | – | – | –
COc1cc2c(cc1OC)/C(=C\c1ccccc1N)C(=O)OC2 | – | 26.4 | – | 13.9 | – | 8.24 µM | – | 27.6 µM | – | 47.2 | – | 42.7 | – | 35.2 µM | – | – | 25.5 µM | 26.8 | – | –
O=C1CCc2c(sc3[nH]c(=S)n(Cc4ccc(Cl)cc4)c(=O)c23)C1 | 2.07 | 6.12 | 0.393 | > 100 | 1.21 | 17.1 µM | 0.196 µM | 0.816 µM | 0.577 µM | 2.3 | 0.345 | 2.68 | 0.988 µM | > 100 µM | 1.87 | 7.25 µM | – | – | – | –
O=C1C(Cl)=C(NCc2ccco2)C(=O)c2ccccc21 | 35 | > 100 | 18.3 | > 100 | 52.1 | > 100 µM | 23.2 µM | 62.2 µM | 21.7 µM | 50.8 | 2.5 | 10.4 | 22.1 µM | > 100 µM | 17.7 | 59.2 µM | – | – | – | –
Cn1cc(C(=O)C[n+]2ccccc2)c2ccccc21 | – | > 100 | – | > 100 | – | > 100 µM | – | – | – | > 100 | – | > 100 | – | > 100 µM | – | 92.4 µM | > 100 µM | – | – | –
CN(C)c1ccc(/C=c2\sc3nc4ccccc4n3c2=O)cc1 | – | > 100 | – | > 100 | – | – | – | > 100 µM | – | > 100 | – | > 100 | – | > 100 µM | – | > 100 µM | > 100 µM | > 100 | – | –
S=P(N1CC1)(N1CC1)N1CC1 | – | – | – | – | 1.27 | 53.4 µM and 334 µM and 54.9 µM | 25.2 µM and 168 µM | 50.2 µM and 376 µM and 345 µM | 22.5 µM and 208 µM | – | – | – | 44.5 µM and 127 µM | > 95.3 µM and 877 µM and 522 µM | 24.5 | 39.8 µM and 280 µM | 37.1 µM and 290 µM | 640 | 2.76 | 41.5
O=c1cccccc1[O-].O=c1cccccc1[O-].O=c1cccccc1[O-].[La+3] | – | 48 | – | > 100 | – | > 100 µM | – | > 100 µM | – | > 100 | – | > 100 | – | 67.9 µM | 23.6 | 90.1 µM | > 100 µM | – | 5.98 | –
O=C1c2ccccc2S(=O)(=O)c2cc(-c3nn[nH]n3)ccc21 | – | > 100 | – | > 100 | – | > 100 µM | – | > 100 µM | – | > 100 | – | > 100 | – | > 100 µM | – | > 100 µM | – | – | – | –
CCN1CCN(CC(=O)N2c3cccc4cccc(c34)N(C(=O)CN3CCN(CC)CC3)C2c2cn(-c3ccccc3)nc2-c2cccc([N+](=O)[O-])c2)CC1 | 1.84 | 3.58 | 1.73 | 3.41 | 1.69 | 5.06 µM | 0.671 µM | 2.49 µM | 1.83 µM | 3.43 | 1.81 | 3.59 | 1.88 µM | 3.69 µM | 0.49 | 2.11 µM | – | – | – | –
